Patent publication US7491710B2 (priority 2003, dated 2009)
Read-outs that look alike come from different tables or passages of the source.

What was measured:
Assay in all cases: biochemical
[1] = target: Aurora2 kinase (Homo sapiens, UniProt O14965)
[2] = target: CDK2/cyclin E (Homo sapiens, UniProt P24941)
[3] = target: human KDR enzyme (Homo sapiens, UniProt P35968)
[4] = target: human Tie2 (Homo sapiens, UniProt Q02763)
[5] = target: human FAK (Homo sapiens, UniProt Q05397)
Sequence of human FAK (Q05397 whole entry): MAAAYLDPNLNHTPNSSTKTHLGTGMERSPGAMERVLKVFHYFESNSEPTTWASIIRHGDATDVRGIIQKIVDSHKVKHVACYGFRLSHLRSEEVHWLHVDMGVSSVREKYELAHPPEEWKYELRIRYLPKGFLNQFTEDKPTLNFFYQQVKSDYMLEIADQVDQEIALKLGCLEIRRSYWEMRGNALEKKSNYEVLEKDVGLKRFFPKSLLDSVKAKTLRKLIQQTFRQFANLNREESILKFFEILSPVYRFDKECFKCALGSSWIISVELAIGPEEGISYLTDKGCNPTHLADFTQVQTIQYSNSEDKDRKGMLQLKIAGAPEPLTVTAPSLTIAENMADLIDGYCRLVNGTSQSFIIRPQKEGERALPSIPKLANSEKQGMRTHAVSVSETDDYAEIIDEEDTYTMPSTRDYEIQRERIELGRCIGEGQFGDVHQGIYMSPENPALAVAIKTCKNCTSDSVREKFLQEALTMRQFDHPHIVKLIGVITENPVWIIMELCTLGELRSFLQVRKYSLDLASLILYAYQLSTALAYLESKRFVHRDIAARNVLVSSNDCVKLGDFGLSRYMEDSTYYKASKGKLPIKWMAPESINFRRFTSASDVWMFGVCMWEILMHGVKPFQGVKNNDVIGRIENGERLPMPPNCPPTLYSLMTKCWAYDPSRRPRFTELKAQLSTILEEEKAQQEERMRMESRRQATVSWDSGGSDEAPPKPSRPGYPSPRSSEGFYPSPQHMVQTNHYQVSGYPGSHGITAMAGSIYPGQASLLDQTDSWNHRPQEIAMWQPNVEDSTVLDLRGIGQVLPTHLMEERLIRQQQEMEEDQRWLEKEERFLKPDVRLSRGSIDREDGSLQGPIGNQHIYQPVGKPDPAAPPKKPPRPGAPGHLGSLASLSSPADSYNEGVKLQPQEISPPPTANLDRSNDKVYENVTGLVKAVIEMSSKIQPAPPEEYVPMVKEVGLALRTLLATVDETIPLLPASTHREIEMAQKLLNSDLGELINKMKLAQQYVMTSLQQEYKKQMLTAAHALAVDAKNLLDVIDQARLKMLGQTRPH

Sequence of Aurora2 kinase (O14965 whole entry): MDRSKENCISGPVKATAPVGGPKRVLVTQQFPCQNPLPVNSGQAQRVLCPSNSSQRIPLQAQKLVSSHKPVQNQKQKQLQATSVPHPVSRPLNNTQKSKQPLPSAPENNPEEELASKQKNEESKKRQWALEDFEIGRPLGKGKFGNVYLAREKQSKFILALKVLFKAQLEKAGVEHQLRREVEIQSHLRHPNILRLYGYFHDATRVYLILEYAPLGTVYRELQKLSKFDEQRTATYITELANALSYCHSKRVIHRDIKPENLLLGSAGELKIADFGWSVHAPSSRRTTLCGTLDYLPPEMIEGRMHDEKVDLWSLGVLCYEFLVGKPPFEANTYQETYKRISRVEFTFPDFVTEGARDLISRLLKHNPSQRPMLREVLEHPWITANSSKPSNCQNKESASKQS
Sequence of human KDR enzyme (P35968 786-1356): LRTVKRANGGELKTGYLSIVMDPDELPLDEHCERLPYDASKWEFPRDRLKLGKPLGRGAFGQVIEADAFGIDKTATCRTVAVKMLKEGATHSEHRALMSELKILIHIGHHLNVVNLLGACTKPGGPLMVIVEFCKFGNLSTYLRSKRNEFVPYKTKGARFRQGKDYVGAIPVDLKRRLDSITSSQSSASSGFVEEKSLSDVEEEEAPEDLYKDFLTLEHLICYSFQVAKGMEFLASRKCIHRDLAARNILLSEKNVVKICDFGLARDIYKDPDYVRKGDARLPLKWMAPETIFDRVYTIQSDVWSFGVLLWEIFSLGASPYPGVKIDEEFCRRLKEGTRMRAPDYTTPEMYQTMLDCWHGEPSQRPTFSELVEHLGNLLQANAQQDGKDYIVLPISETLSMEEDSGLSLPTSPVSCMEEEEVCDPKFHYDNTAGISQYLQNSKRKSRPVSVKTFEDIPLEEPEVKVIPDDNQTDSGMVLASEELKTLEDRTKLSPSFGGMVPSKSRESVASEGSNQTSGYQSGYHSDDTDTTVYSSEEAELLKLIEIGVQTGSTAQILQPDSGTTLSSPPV
Sequence of human Tie2 (Q02763 776-1124): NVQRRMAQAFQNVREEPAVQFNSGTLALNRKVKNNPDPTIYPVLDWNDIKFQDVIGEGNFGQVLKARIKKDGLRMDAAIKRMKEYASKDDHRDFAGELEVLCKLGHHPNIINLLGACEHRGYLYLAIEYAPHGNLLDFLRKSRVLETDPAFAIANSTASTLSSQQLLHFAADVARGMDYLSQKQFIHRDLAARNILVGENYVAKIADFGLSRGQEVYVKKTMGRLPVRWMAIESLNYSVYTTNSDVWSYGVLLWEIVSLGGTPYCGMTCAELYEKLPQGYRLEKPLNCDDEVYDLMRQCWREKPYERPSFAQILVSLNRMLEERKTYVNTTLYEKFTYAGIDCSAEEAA

Compound	IC50 [1] [nM]	IC50 [2] [nM]	IC50 [3] [nM]	IC50 [4] [nM]	IC50 [5] [nM]	IC50 ([1]; read-out: Au2 IC50) [nM]	IC50 ([2]; read-out: CDK2 IC50) [nM]
COP(=O)(Oc1ccc2[nH]nc(-c3cc4ccccc4[nH]3)c2c1)c1ccccc1 (stereo not drawn) [Example 06, Phenylphosphonic acid 3-(1H-indol-2-yl)-1-H-indazol-5-yl ester methyl ester]	15	184	288	48	740	–	–
O=P(Oc1ccc2[nH]nc(-c3cc4ccccc4[nH]3)c2c1)(c1ccccc1)c1ccccc1 [Example 04, Diphenylphosphinic acid 3-(1H-indol-2-yl)-1H-indazol-5-yl ester]	99	586	1630	22	2900	–	–
COP(=O)(Oc1ccc2[nH]nc(-c3ccc[nH]3)c2c1)c1ccccc1 (stereo not drawn) [Example 11, Phenylphosphonic acid methyl ester 3-(1H-pyrrol-2-yl)-1H-indazol-5-yl ester]	90	199	1250	229	–	–	–
COP(=O)(Oc1ccc2[nH]nc(/C=C/c3ccccc3)c2c1)c1ccccc1 (stereo not drawn) [Example 25, Phenylphosphonic acid methyl ester 3-styryl-1H-indazol-5-yl ester]	41	578	–	–	–	–	–
COP(=O)(O)c1ccc2[nH]nc(/C=C/c3ccccc3)c2c1 [Example 13, [3-((E)-styryl)-1H-indazol-5-yl]phosphonic acid monomethyl ester]	69	–	–	–	–	–	–
COP(=O)(O)c1ccc2[nH]nc(-c3ccc[nH]3)c2c1 [Example 17, [3-(1H-Pyrrol-2-yl)-1H-indazol-5-yl]phosphonic acid monomethyl ester]	770	–	–	–	–	–	–
COP(=O)(O)c1ccc2[nH]nc(-c3cccs3)c2c1 [Example 16, (3-Thiophen-2-yl-1H-indazol-5-yl)phosphonic acid monomethyl ester]	2200	> 10000	> 10000	2210	> 10000	–	–
COP(=O)(Oc1ccc2[nH]nc(-c3cc4ccccc4s3)c2c1)c1ccccc1 (stereo not drawn) [Example 27, Phenylphosphonic acid 3-benzo[b]thiophen-2-yl-1H-indazol-5-yl ester methyl ester]	134	7560	1880	353	–	–	–
CCOP(=O)(Oc1ccc2[nH]nc(-c3cc4nc(OC)ccc4[nH]3)c2c1)c1ccccc1 (stereo not drawn) [Example 23, Phenylphosphonic acid ethyl ester 3-(5-methoxy-1H-pyrrolo[3,2-b]pyridin-2-yl)-1H-indazol-5-yl ester]	24	249	442	30	–	–	–
CC(C)OP(=O)(Oc1ccc2[nH]nc(-c3cc4ccccc4[nH]3)c2c1)c1ccccc1 (stereo not drawn) [Example 07, Phenylphosphonic acid 3-(1H-indol-2-yl)-1H-indazol-5-yl ester isopropyl ester]	24	959	2050	162	9640	–	–
COP(=O)(Oc1ccc2[nH]nc(-c3cc4ccccc4s3)c2c1)c1ccccc1 (stereo not drawn) [Example 26, Phenylphosphonic acid 3-benzo[b]thiophen-2-yl-1H-indazol-5-yl ester methyl ester]	–	–	–	–	–	730	3240
CP(=O)(Oc1ccc2[nH]nc(/C=C/c3ccccc3)c2c1)c1ccccc1 (stereo not drawn) [Example 01, Methylphenylphosphinic acid 3-((E)-styryl)-1H-indazol-5-yl ester]	37	234	158	40	279	–	–
COP(=O)(O)c1ccc2[nH]nc(-c3cc4ccccc4[nH]3)c2c1 [Example 15, [3-(1H-Indol-2-yl)-1H-indazol-5-yl]phosphonic acid monomethyl ester]	108	2260	> 10000	4080	> 10000	–	–
CP(C)(=O)Oc1ccc2[nH]nc(-c3cc4ccccc4[nH]3)c2c1 [Example 18, Dimethylphosphinic acid 3-(1H-indol-2-yl)-1H-indazol-5-yl ester]	20	33	228	33	7570	–	–
CP(=O)(Oc1ccc2[nH]nc(-c3cc4ccccc4[nH]3)c2c1)c1ccccc1 (stereo not drawn) [Example 03, Methylphenylphosphinic acid 3-(1H-indol-2-yl)-1H-indazol-5-yl ester]	20	142	310	3	816	–	–
CP(=O)(Oc1ccc2[nH]nc(-c3cc4cc(OCCN5CCOCC5)ccc4[nH]3)c2c1)c1ccccc1 (stereo not drawn) [Example 05, Methylphenylphosphinic acid 3-[5-(2-morpholin-4-ylethoxy)-1H-indol-2-yl]-1H-indazol-5-yl ester]	15	394	141	11	48	–	–
COP(=O)(Oc1ccc2[nH]ncc2c1)c1ccccc1 (stereo not drawn) [Example 10, Phenylphosphonic acid 1H-indazol-5-yl ester methyl ester]	9130	> 10000	–	> 10000	> 10000	–	–
O=P(O)(Oc1ccc2[nH]nc(-c3cc4ccccc4[nH]3)c2c1)c1ccccc1 [Example 33, Phenylphosphonic acid mono-[3-(1H-indol-2-yl)-1H-indazol-5-yl]ester]	10	291	577	17	316	–	–
O=P(OCc1ccccc1)(Oc1ccc2[nH]nc(-c3cc4ccccc4[nH]3)c2c1)c1ccccc1 (stereo not drawn) [Example 08, Phenylphosphonic acid 3-(1H-indol-2-yl)-1H-indazol-5-yl ester benzyl ester]	53	3700	5400	130	8300	–	–
COc1ccc2[nH]c(-c3n[nH]c4ccc(OP(=O)(OC)c5ccccc5)cc34)cc2n1 (stereo not drawn) [Example 24, phenylphosphonic acid 3-(5-methoxy-1H-pyrrolo[3,2-b]pyridin-2-yl)-1H-indazol-5-yl ester methyl ester]	24	142	364	22	–	–	–
O=P(Oc1ccc2[nH]nc(/C=C/c3ccccc3)c2c1)(c1ccccc1)c1ccccc1 [Example 02, Diphenylphosphinic acid 3-((E)-styryl)-1H-indazol-5-yl ester]	75	991	508	518	3530	–	–
COP(=O)(Oc1ccc2[nH]nc(-c3cc4ccccc4[nH]3)c2c1)C1CCCCC1 (stereo not drawn) [Example 32, Cyclohexylphosphonic acid 3-(1H-indol-2-yl)-1H-indazol-5-yl ester methyl ester]	26	1500	999	119	–	–	–
COP(=O)(OC)c1ccc2[nH]nc(/C=C/c3ccccc3)c2c1 [Example 12, [3-((E)-styryl)-1H-indazol-5-yl]phosphonic acid dimethyl ester]	140	290	2030	2310	–	–	–
CCOP(=O)(OCC)c1ccc2[nH]nc(/C=C/c3ccccc3)c2c1 [Example 14, [3-((E)-styryl)-1H-indazol-5-yl]phosphonic acid diethyl ester]	76	780	1660	290	5880	–	–
